Results published in ChEMBL document CHEMBL1201862, “PubChem BioAssay data set” (2004).
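Growth conditions: 96-well plates. Treatment: test compound, 48 hours, 5 concentrations. Analysis: linear interpolation between bracketing concentrations; unreached endpoints set to highest concentration. GI50 = concentration required for 50% inhibition of growth.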 Calls of active or inactive are those of the source. Rule as the data show it: active = GI50 up to about 1.1 µM and inactive = higher.

Assays:
Test in all cases: NCI tumour cell line growth inhibition, 48 h
[1] = test system: A498
[2] = test system: SNB-19
[3] = test system: RXF 393
[4] = test system: UACC-62
[5] = test system: 786-0
[6] = test system: HCC 2998
[7] = test system: NCI-H23
[8] = test system: OVCAR-8
[9] = test system: SN12C
[10] = test system: IGROV-1
[11] = test system: KM12
[12] = test system: CCRF-CEM
[13] = test system: ACHN
[14] = test system: SR
[15] = test system: CAKI-1
[16] = test system: SF-539

Measured: GI50

CCc1ccccc1NC(=O)C(=O)C(C#N)c1ccccc1Cl (stereo unspecified)
inactive: [1] 35.5 µM | [2] > 100 µM | [3] > 100 µM | [4] > 100 µM | [5] > 100 µM | [6] > 100 µM | [7] > 100 µM | [8] > 100 µM | [9] > 100 µM | [10] > 100 µM | [11] > 100 µM | [12] > 100 µM | [13] > 100 µM

O=C1C(Cl)C(c2ccc(Cl)cc2)N1n1cnc2ccccc2c1=O (stereo unspecified)
inactive: [2] > 100 µM | [3] 76 µM | [4] 87.1 µM | [14] 52.7 µM | [5] > 100 µM | [6] > 100 µM | [7] > 100 µM | [8] > 100 µM | [9] > 100 µM | [10] 96.2 µM | [11] 24.8 µM | [15] 40.8 µM | [12] 48.6 µM | [13] > 100 µM

CCC1(N=[N+]=[N-])C(=O)Nc2cc(C)ccc2C1=O (stereo unspecified)
inactive: [1] > 100 µM | [2] > 100 µM | [16] > 100 µM | [4] 62.2 µM | [5] > 100 µM | [6] > 100 µM | [7] 70.1 µM | [8] > 100 µM | [9] 48.6 µM | [10] > 100 µM | [11] > 100 µM | [15] 36.9 µM | [12] 34.3 µM | [13] 22.3 µM

CCCN1CN(C(C(=O)N[C@@H]2C(=O)N3C(C(=O)O)=C(C)CSC23)c2ccc(O)cc2)CSC1=S (stereo partly specified)
inactive: [1] > 100 µM | [2] > 100 µM | [16] > 100 µM | [4] > 100 µM | [5] > 100 µM | [7] > 100 µM | [8] > 100 µM | [9] > 100 µM | [10] > 100 µM | [11] > 100 µM | [15] > 100 µM | [12] 66.8 µM | [13] > 100 µM

CN1CCN(C)C1c1cccc(C2N(C)CCN2C)c1
inactive: [1] > 100 µM | [2] > 100 µM | [16] > 100 µM | [3] > 100 µM | [4] > 100 µM | [5] > 100 µM | [6] > 100 µM | [7] > 100 µM | [9] > 100 µM | [10] > 100 µM | [11] > 100 µM | [12] > 100 µM | [13] > 100 µM

COc1ccc2nc(NC(=O)C(=O)C(C#N)c3ccc(CC#N)cc3)sc2c1 (stereo unspecified)
inactive: [1] > 100 µM | [2] 53 µM | [16] > 100 µM | [3] > 100 µM | [4] 92.9 µM | [5] > 100 µM | [6] > 100 µM | [7] > 100 µM | [8] > 100 µM | [9] > 100 µM | [10] > 100 µM | [11] > 100 µM | [15] > 100 µM | [12] > 100 µM | [13] > 100 µM

COc1cccc2c1[C@]1(O)C(O)CCCC21 (stereo partly specified)
inactive: [1] > 100 µM | [2] > 100 µM | [16] > 100 µM | [3] > 100 µM | [4] > 100 µM | [5] > 100 µM | [6] > 100 µM | [7] > 100 µM | [8] > 100 µM | [9] > 100 µM | [10] > 100 µM | [11] > 100 µM | [15] > 100 µM | [12] > 100 µM | [13] > 100 µM

CC(C)(C)S(=O)OC12CC3CC(CC(C3)C1)C2 (stereo unspecified)
inactive: [2] > 100 µM | [16] > 100 µM | [3] > 100 µM | [4] > 100 µM | [14] > 100 µM | [5] > 100 µM | [7] > 100 µM | [8] > 100 µM | [9] > 100 µM | [10] > 100 µM | [11] > 10 µM | [12] > 100 µM | [13] > 100 µM

CCCCCCCCCCCCCP(=O)(O)NCC(N)=O
inactive: [1] > 100 µM | [2] 45.6 µM | [16] 55.7 µM | [3] > 100 µM | [4] 52.4 µM | [5] > 100 µM | [6] > 100 µM | [7] > 100 µM | [8] 71.3 µM | [9] 52.7 µM | [10] 41.2 µM | [11] 85.1 µM | [12] 52.8 µM | [13] 28.6 µM

CNC(=O)C(C)Oc1ccc(OCC2CCCCC2)cc1 (stereo unspecified)
inactive: [1] > 100 µM | [2] > 100 µM | [16] > 100 µM | [3] > 100 µM | [4] > 100 µM | [5] > 100 µM | [7] 35.6 µM | [8] > 100 µM | [9] > 100 µM | [10] > 100 µM | [11] > 100 µM | [12] > 100 µM | [13] > 100 µM

Nc1nc[n+](Cc2ccccc2CCO)c2[nH]cnc12
inactive: [1] > 100 µM | [2] > 100 µM | [16] > 100 µM | [3] > 100 µM | [4] > 100 µM | [5] > 100 µM | [7] > 100 µM | [8] > 100 µM | [9] > 100 µM | [10] > 100 µM | [11] > 100 µM | [15] > 100 µM | [12] > 100 µM | [13] > 100 µM

COc1ccc(/C(=N/Nc2ccccc2)C(c2ccc(OC)cc2)C2OC(=O)c3ccccc32)cc1 (stereo unspecified)
inactive: [1] > 100 µM | [2] > 100 µM | [16] > 100 µM | [3] > 10 µM | [4] 52.7 µM | [5] > 100 µM | [6] > 100 µM | [8] > 100 µM | [9] > 100 µM | [10] 83.9 µM | [15] 41.9 µM | [12] 79.8 µM | [13] 97.1 µM

CCOC(=O)c1cc(OC(=O)CC)c2c(OC)ccc(OC)c2c1
inactive: [2] 89.3 µM | [16] 47.2 µM | [3] 30.5 µM | [4] 28.8 µM | [14] 18.7 µM | [5] 31 µM | [6] > 100 µM | [7] 74 µM | [9] 78.2 µM | [10] > 100 µM | [11] 42.7 µM | [15] 46.2 µM | [13] 35.2 µM

CCOc1ccc(NC(=O)C(=O)C(C(=O)c2ccc3ccccc3c2)C2OC(=O)c3ccccc32)cc1 (stereo unspecified)
inactive: [1] 15.1 µM | [2] 9.62 µM | [16] 7.31 µM | [4] 13.7 µM | [5] 6.47 µM | [6] 11.2 µM | [7] 11.7 µM | [8] 17.6 µM | [9] 17.2 µM | [10] 17.6 µM | [11] 32.7 µM | [15] 23.8 µM | [12] 7.08 µM | [13] 33.4 µM
